# Measurements published in patent US20080235824A1, “Use of Esterase Genes as Selectable Markers for Transforming Plant Cells” (priority 2006, published 2008).
# Key:
# [1] = system: geranium petiole explants; assay: Survival of geranium petiole explants on regeneration medium with detergents; format: cell-based, Pelargonium X hortorum; details: for Survival of geranium petiole explants on regeneration medium: surviving/total explants
# Procedure: Tween 20, a nonionic, fatty acid ester detergent, was evaluated as a potential selective agent for use in geranium (Pelargonium X hortorum) transformation experiments by placing geranium petiole explants into tissue culture with the addition to Tween 20 to the regeneration (shooting) medium normally used in geranium transformations (Robichon et al., 1995). Tween 20 was added at three concentrations: 1%, 0.1% and 0.01%. Each treatment consisted of 40 sterilized petiole explants placed in four tissue culture plates carrying 10 explants each. Survival of the explants was assayed weekly over four weeks on these media. Potential selective agent Span 20, also a nonionic, fatty acid ester detergent, was similarly evaluated, except that concentrations of 1%, 0.5% and 0.25% were evaluated over a twelve week period of time. The nonionic detergent Triton X-100, which is not a fatty acid ester detergent, was included for comparative purposes.
# [2] = system: tobacco cultivar Xanthi leaf explants; assay: Agrobacterium transformation of tobacco with selection on detergent or kanamycin; format: cell-based, Nicotiana tabacum; details: pIPG833 bovine PGE, 0.5% Tween, 73 explants
# tomato leaf explants = assay: Survival of tomato leaf explants on regeneration medium with detergents; format: cell-based, Lycoperisicon esculentum; details: 1% detergent; for Survival of tomato leaf explants on regeneration medium: surviving/total explants
# Procedure: Tween 20 was similarly evaluated as a potential selective agent for use in tomato (Lycoperisicon esculentum) transformations by placing tomato leaf explants placed into tissue culture; Tween 20 was added to tomato regeneration (shooting) medium normally used in tomato transformations (Riggs et al., 2001) at a 1% concentration. Each treatment consisted of 40 sterilized leaf explants placed in four tissue culture plates carrying 10 explants each. Survival of the explants was assayed weekly over four weeks on these media.
# [3] = system: tobacco cultivar Xanthi leaf explants; assay: Agrobacterium transformation of tobacco with selection on detergent or kanamycin; format: cell-based, Nicotiana tabacum; details: for Transformation frequency (%): confirmed by PCR
# Description: Transgenic tobacco (Nicotiana tabacum) cultivar “Xanthi” plants were created using the Agrobacterium tumefaciens DNA delivery method [Horsch et al., 1985] using pIPG833. Selection was on 1% or on 0.05% Tween 20 added to both shoot and root regeneration media. As a control for comparative purposes, pIPG786 was used (carrying the nptII gene for kanamycin resistance) for transformation and 100 micrograms/ml kanamycin was used for selection.
# Transgenic tobacco (Nicotiana tabacum) cultivar “Xanthi” plants were created using the Agrobacterium tumefaciens DNA delivery method [Horsch et al., 1985] using pIPG833. Selection was on 1% or on 0.05% Span 20 added to both shoot and root regeneration media.
# Transgenic tobacco (Nicotiana tabacum) cultivar “Xanthi” plants were created using the Agrobacterium tumefaciens DNA delivery method [Horsch et al., 1985] using pIPG875. Selection was on 1% Span 20 added to the shoot regeneration medium and 0.05% Span 20 added to the root regeneration medium.
# rooting tomato plants = assay: Root growth of rooting tomato plants on 1% Tween 20 medium; format: in vivo
# Description: The plant on the left, labeled “731”, was transformed using kanamycin selection and the kanamycin resistance gene driven by the 35S promoter on pIPG731 (ie., “empty” vector, without a lipase gene). The plant on the right, labeled “768”, was similarly transformed using kanamycin selection and the kanamycin resistance gene driven by the 35S promoter on pIPG768 (carrying a lipase gene). Both plants were rooted, kanamycin resistant transformants. Both plants, with roots removed to ca. 1-4 mm from the base, were transferred to rooting medium containing 1% Tween 20. After one week, the roots of both plants had grown to about the extent of the pIPG731 transformed plant, and the small ink marks were placed on the plates to indicate the extent of the root growth. Two weeks later, the roots on the plant transformed with pIPG731 had ceased to elongate and its roots started to appear brown at the growing tips, while the roots on the plant transformed with pIPG768 continued growing.
# In order to test if the rooting medium inhibited or killed nontransgenic tomato that were rooting, regenerating nontransgenic tomato plants that were rooting, as well as transgenic tomato plants carrying pIPG678 that were rooting were placed on 1% Tween 20 medium.
# [4] = system: tomato cultivar Micro-Tom leaf explants; assay: Agrobacterium transformation of tomato with selection on detergent or kanamycin; format: cell-based, Lycopersicon esculentum; details: for No. of independent calli forming shoots / No. of rooted shoots / Transformation frequency (%): tomato Micro-Tom, pIPG768 bovine PGE; for Transformation frequency (%): confirmed by PCR
# Description: Transgenic tomato (Lycopersicon esculentum) cultivar “Micro-Tom” plants were created using the Agrobacterium tumefaciens DNA delivery method [Riggs et al., 2001; Sun et al., 2006] using pIPG768. Selection was either on 1% Tween 20 added to both shoot and root regeneration media. As controls for comparative purposes, 100 micrograms/ml kanamycin was used.
# [5] = tobacco Xanthi, pIPG833 bovine PGE, 1% Tween, 73 explants
# [6] = 1% Tween in shoot and root media, Exp. 1, 253 explants
substance,measurement,setting,value
Tween 20,Survival of geranium petiole explants on regeneration medium,"[1]; 0.01% detergent, Week 1",33/40
same,Survival of geranium petiole explants on regeneration medium,"[1]; 0.01% detergent, Week 2",27/40
same,Survival of geranium petiole explants on regeneration medium,"[1]; 0.01% detergent, Week 3",20/40
same,Survival of geranium petiole explants on regeneration medium,"[1]; 0.01% detergent, Week 4",0/40
same,Survival of geranium petiole explants on regeneration medium,"[1]; 0.1% detergent, Week 1",31/40
same,Survival of geranium petiole explants on regeneration medium,"[1]; 0.1% detergent, Week 2",10/40
same,Survival of geranium petiole explants on regeneration medium,"[1]; 0.1% detergent, Week 3",0/40
same,Survival of geranium petiole explants on regeneration medium,"[1]; 0.1% detergent, Week 4",0/40
same,Survival of geranium petiole explants on regeneration medium,"[1]; 1% detergent, Week 1",10/40
same,Survival of geranium petiole explants on regeneration medium,"[1]; 1% detergent, Week 2",0/40
same,Survival of geranium petiole explants on regeneration medium,"[1]; 1% detergent, Week 3",0/40
same,Survival of geranium petiole explants on regeneration medium,"[1]; 1% detergent, Week 4",0/40
same,Killing of geranium explants in tissue culture (in words),[1]; summary of Table 1,"completely killed all geranium explants in four weeks, even at the lowest level (0.01%) tested"
same,No. of rooted shoots,[2],73
same,Transformation frequency (%),[2]; confirmed by PCR,6%
same,Survival of tomato leaf explants on regeneration medium,tomato leaf explants; Week 1,8/40
same,Survival of tomato leaf explants on regeneration medium,tomato leaf explants; Week 2,8/40
same,Survival of tomato leaf explants on regeneration medium,tomato leaf explants; Week 3,3/40
same,Survival of tomato leaf explants on regeneration medium,tomato leaf explants; Week 4,0/40
same,Killing of tomato explants in tissue culture (in words),tomato leaf explants; summary of Table 2,completely killed all tomato explants in four weeks
same,Tissue provided with pIPG833 producing shoots,[3]; regeneration medium with 0.05% detergent,100%
same,Tobacco leaf material provided with bovine PGE on pIPG833 producing green shoots,[3]; regeneration medium with 1% detergent,16%
same,Transformation efficiency,"[3]; tobacco Xanthi, pIPG833, detergent at the 0.05% level",6%
same,No. of independent calli forming shoots,"[3]; tobacco Xanthi, pIPG833 bovine PGE, 0.5% Tween, 73 explants",73
same,No. of independent calli forming shoots,"[3]; tobacco Xanthi, pIPG833 bovine PGE, 1% Tween in shoot and root media, 73 explants",12
same,No. of rooted shoots,[3]; [5],12
same,Transformation frequency (%),[3]; [5],5%
same,Transformation frequency (%),"[3]; tobacco Xanthi, pIPG833 bovine PGE, 1% Tween, 73 explants, listed as Tween",5%
same,Growth of transgenic tomato plants expressing bovine PGE,rooting tomato plants,did not affect growth
same,Root growth of nontransgenic rooting tomato plants,rooting tomato plants,completely and almost immediately inhibited root growth
same,Share of tomato leaf material provided with bovine PGE on pIPG768 producing green shoots,[4]; regeneration medium with 1% Tween 20,nearly half
same,Fate of tomato leaf material provided with empty vector control plasmid,"[4]; regeneration medium with 1% Tween 20, 30 days of selection",either died or produced a small amount of brown callus that died
same,No. of independent calli forming shoots,[4]; [6],25
same,No. of rooted shoots,[4]; [6],25
same,Transformation frequency (%),"[4]; 1% Tween, Exp. 1, 253 explants",7%
same,No. of independent calli forming shoots,"[4]; 1% Tween, Exp. 2, 204 explants",15
same,No. of rooted shoots,"[4]; 1% Tween, Exp. 2, 204 explants",15
same,Transformation frequency (%),"[4]; 1% Tween, Exp. 2, 204 explants",4%
same,No. of independent calli forming shoots,"[4]; 1% Tween, Exp. 3, 275 explants",48
same,No. of rooted shoots,"[4]; 1% Tween, Exp. 3, 275 explants",48
same,Transformation frequency (%),"[4]; 1% Tween, Exp. 3, 275 explants",4%
